According to PMC10057332, “Anticancer and Targeting Activity of Phytopharmaceutical Structural Analogs of a Natural Peptide from Trichoderma longibrachiatum and Related Peptide-Decorated Gold Nanoparticles” (International Journal of Molecular Sciences, 2023):
“And” between values parts separate entries of the source, which are not always exact repeats. Equal entries are not always repeated. Residues, ends and D or L forms follow the SMILES beside them.

Legend:
[1] = system: MCF-10A cells; experiment: MTS cytotoxicity in normal epithelial breast MCF-10A cells; type: cell-based, human; details: for IC50: cells exposed to peptaibols for 24 h, MTS assay; for effect on viability of MCF-10A cells: peptide concentration range tested, 24 h, MTS
Procedure: (§1) Cells were incubated with increasing concentrations of peptides for 24 h before assessing cell viability with MTS assay in order to create dose/response curves (Figure 4) and calculate the half maximal inhibitory concentration (IC50) values for each peptaibol (Table 3). For convenience, peptides have been subdivided based on their C-terminal substituents, i.e., leucinol (lol) or amide (-NH2).
(§2) The cytotoxicity of peptides and free Api8- and Leu4-decorated GNPs was assessed with the MTS assay (CellTiter 96® AQueous One Solution Cell Proliferation Assay, Promega, Milan, Italy) in cancer MDA-MB-231 and normal MCF-10A cells exposed to increasing concentrations of peptaibols/GNPs for 24 h. Cells (8 × 10^3 cells/well for MDA-MB-231, 6 × 10^3 cells/well for MCF-10A) were seeded in 96-well plates, and after 24 h the medium was replaced with a fresh one containing peptaibols/GNPs. For MTS assay, the medium was replaced with 100 μL of serum-free medium and 20 μL of the CellTiter 96® reagent. After 60–90 min, the absorbance at 492 nm was measured with a Multiskan Go (Thermo Fischer Scientific, Carlsbad, CA, USA) plate reader and cell viability was expressed as a function of absorbance relative to that of control cells (considered as 100% viability). IC50 values for each peptaibol treatment were extrapolated from the relative dose–response curves obtained with the software GraphPad Prism 9.5.

[2] = MCF-10A cells, 1 h at 37 °C, CD at 25 °C
Procedure: The CD profile of Api8-NH2 and Leu4-NH2 was also acquired in the presence of cells (cell line MCF-10A) (Figure 1). This study also provided information on the stability of the peptides in the biological environment [63].
Figure 1 CD profiles of Leu4-NH2 and Api8-NH2 acquired at 25 °C in the presence of MCF-10A epithelial breast cells. (Peptide concentrations: Api8, 5 × 10^−5 M; Leu4, 1 × 10^−5 M).
The CD spectra were obtained on a Jasco (Tokyo, Japan) J-1500 spectropolarimeter. Fused quartz cells (Hellma, Mühlheim, Germany) of 1 mm path length were used. The values are expressed in terms of [θ]T, total molar ellipticity (deg∙cm^2∙dmol^−1). […] The CD measurements in cells were performed as follows: 1 × 10^6 cells were harvested, washed twice in PBS and incubated in the same buffer with peptides (concentrations: Api8, 5 × 10^−5 M; Leu4, 1 × 10^−5 M) for 1 h at 37°C in a rotating mixer before recording the CD spectra.

[3] = system: MDA-MB-231 cells; experiment: MTS cytotoxicity in MDA-MB-231 triple negative breast cancer cells; type: cell-based, human; details: for IC50: cells exposed to peptaibols for 24 h, MTS assay; for killing activity in cancer cells: 10 µM peptide
Procedure: as §1, §2

[4] = system: MDA-MB-231 with respect to MCF-10A cells; experiment: Flow cytometry uptake of FITC-conjugated peptaibols; type: cell-based, human; details: highest concentration tested, 24 h incubation
Procedure: For this study, we decided to focus our attention on the unique, noncytotoxic, yet membrane-active peptides Leu4-NH2 and Api8-NH2 to study them as potential cancer-targeting agents. […] As reference, K6-NH2 internalization was measured as well, since for this specific peptide, previous studies already reported an increased uptake in tumor cells (HDLM-2 and A2780 tumor cell lines) with respect to normal healthy cells, such as peripheral blood mononuclear cells (PBMCs) or fibroblasts.
Figure 5 Flow cytometry measurements of FITC-conjugated peptaibols in MDA-MB-231 (a) and MCF-10 (b) cells after a 24 h incubation period.
Flow cytometry and peptides conjugated with FITC, namely Api8-FITC and Leu4-FITC, were used to assess the capacity of peptaibols to be internalized by breast cancer cells, Briefly, 8 × 10^4 MDA-MB-231 and MCF-10A cells/well were grown in 24-well plates for 24 h and then incubated for 24 h with 5 μM peptaibols. […] Those washings both before cell detachment from plates and after cell recovery and centrifugation removed any peptides not strongly associated with cell plasma membranes, assuring FITC signals measured by flow cytometry were referred exclusively to internalized peptides. Cells were centrifuged and resuspended in Versene before measuring FITC fluorescence using a BD Fortessa^TM X-20 flow cytometer (Becton Dickinson, San Jose, CA, USA). […]

Compound	IC50 [1] [µM]	effect on viability of MCF-10A cells [1]	stability in the presence of cells (CD) [2]	IC50 [3]	effect on viability of MDA-MB-231 cells ([3]; peptide concentration range tested, 24 h, MTS)	killing activity in cancer cells ([3]; 24 h, MTS)	internalization in MDA-MB-231 with respect to MCF-10A cells [4]
CCCCCCCC(=O)NC(C)(C)C(=O)NCC(=O)N[C@@H](CC(C)C)C(=O)NC(C)(C)C(=O)NCC(=O)NCC(=O)N[C@@H](CC(C)C)C(=O)NC1(C(=O)NCC(=O)N[C@H](C(=O)N[C@@H](CC(C)C)C(N)=O)[C@@H](C)CC)CCNCC1 [Api8-NH2, Oct-Aib^1-Gly-Leu-Aib^4-Gly-Gly-Leu-Api^8-Gly-Ile-Leu^11-NH2] (HELM PEPTIDE1{[CCCCCCCC(=O)[*:2]].[Aib].G.L.[Aib].G.G.L.[O=C(C1(N[*:1])CCNCC1)[*:2]].G.I.L.[am]}$$$$V2.0)	> 20	did not significantly affect the viability	stability of the peptides in the presence of cells	> 20 µM	did not significantly affect the viability	–	–
CCCCCCCC(=O)NC(C)(C)C(=O)N[C@@H](CCCCN)C(=O)N[C@@H](CC(C)C)C(=O)NC(C)(C)C(=O)NCC(=O)NCC(=O)N[C@@H](CC(C)C)C(=O)NC(C)(C)C(=O)NCC(=O)N[C@H](C(=O)N[C@@H](CC(C)C)C(N)=O)[C@@H](C)CC [K2-NH2, Oct-Aib^1-Lys-Leu-Aib^4-Gly-Gly-Leu-Aib^8-Gly-Ile-Leu^11-NH2] (HELM PEPTIDE1{[CCCCCCCC(=O)[*:2]].[Aib].K.L.[Aib].G.G.L.[Aib].G.I.L.[am]}$$$$V2.0)	17	–	–	9 µM	–	about 90%	–
CCCCCCCC(=O)NC(C)(C)C(=O)N[C@@H](CCCCN)C(=O)N[C@@H](CC(C)C)C(=O)NC(C)(C)C(=O)N[C@@H](CCCCN)C(=O)NCC(=O)N[C@@H](CC(C)C)C(=O)NC(C)(C)C(=O)NCC(=O)N[C@H](C(=O)N[C@H](CO)CC(C)C)[C@@H](C)CC [K25-Lol, Oct-Aib^1-Lys-Leu-Aib^4-Lys-Gly-Leu-Aib^8-Gly-Ile-Lol^11] (HELM PEPTIDE1{[CCCCCCCC(=O)[*:2]].[Aib].K.L.[Aib].K.G.L.[Aib].G.I.[CC(C)C[C@@H](CO)N[*:1]]}$$$$V2.0)	16	–	–	9 µM	–	~60%	–
CCCCCCCC(=O)NC(C)(C)C(=O)NCC(=O)N[C@@H](CC(C)C)C(=O)NC(C)(C)C(=O)N[C@@H](CCCCN)C(=O)N[C@@H](CCCCN)C(=O)N[C@@H](CC(C)C)C(=O)NC(C)(C)C(=O)NCC(=O)N[C@H](C(=O)N[C@H](CO)CC(C)C)[C@@H](C)CC [K56-Lol, Oct-Aib^1-Gly-Leu-Aib^4-Lys-Lys-Leu-Aib^8-Gly-Ile-Lol^11]	18	–	–	12 µM	–	~20%	–
CCCCCCCC(=O)NC(C)(C)C(=O)N[C@@H](CCCCN)C(=O)N[C@@H](CC(C)C)C(=O)NC(C)(C)C(=O)N[C@@H](CCCCN)C(=O)NCC(=O)N[C@@H](CC(C)C)C(=O)NC(C)(C)C(=O)N[C@@H](CCCCN)C(=O)N[C@H](C(=O)N[C@H](CO)CC(C)C)[C@@H](C)CC [K259-Lol, Oct-Aib^1-Lys-Leu-Aib^4-Lys-Gly-Leu-Aib^8-Lys-Ile-Lol^11] (HELM PEPTIDE1{[CCCCCCCC(=O)[*:2]].[Aib].K.L.[Aib].K.G.L.[Aib].K.I.[CC(C)C[C@@H](CO)N[*:1]]}$$$$V2.0)	15	–	–	10 µM	–	~60%	–
CCCCCCCC(=O)NC(C)(C)C(=O)N[C@@H](CCCCN)C(=O)N[C@@H](CC(C)C)C(=O)NC(C)(C)C(=O)N[C@@H](CCCCN)C(=O)NCC(=O)N[C@@H](CC(C)C)C(=O)NC(C)(C)C(=O)N[C@@H](CCCCN)C(=O)N[C@H](C(=O)N[C@@H](CC(C)C)C(N)=O)[C@@H](C)CC [K259-NH2, Oct-Aib^1-Lys-Leu-Aib^4-Lys-Gly-Leu-Aib^8-Lys-Ile-Leu^11-NH2] (HELM PEPTIDE1{[CCCCCCCC(=O)[*:2]].[Aib].K.L.[Aib].K.G.L.[Aib].K.I.L.[am]}$$$$V2.0)	17	–	–	~13 µM and 13 µM	–	–	–
CCCCCCCC(=O)NC(C)(C)C(=O)N[C@@H](CCCCN)C(=O)N[C@@H](CC(C)C)C(=O)NC(C)(C)C(=O)N[C@@H](CCCCN)C(=O)N[C@@H](CCCCN)C(=O)N[C@@H](CC(C)C)C(=O)NC(C)(C)C(=O)N[C@@H](CCCCN)C(=O)N[C@H](C(=O)N[C@H](CO)CC(C)C)[C@@H](C)CC [K2569-Lol, Oct-Aib^1-Lys-Leu-Aib^4-Lys-Lys-Leu-Aib^8-Lys-Ile-Lol^11] (HELM PEPTIDE1{[CCCCCCCC(=O)[*:2]].[Aib].K.L.[Aib].K.K.L.[Aib].K.I.[CC(C)C[C@@H](CO)N[*:1]]}$$$$V2.0)	14	–	–	12 µM	–	~30%	–
CCCCCCCC(=O)NC(C)(C)C(=O)NCC(=O)N[C@@H](CC(C)C)C(=O)N[C@@H](CC(C)C)C(=O)NCC(=O)NCC(=O)N[C@@H](CC(C)C)C(=O)NC(C)(C)C(=O)NCC(=O)N[C@H](C(=O)N[C@H](CO)CC(C)C)[C@@H](C)CC [Leu4-Lol, reference compound] (HELM PEPTIDE1{[CCCCCCCC(=O)[*:2]].[Aib].G.L.L.G.G.L.[Aib].G.I.[CC(C)C[C@@H](CO)N[*:1]]}$$$$V2.0)	> 20	did not significantly affect the viability	–	> 20 µM	–	–	–
CCCCCCCC(=O)NC(C)(C)C(=O)NCC(=O)N[C@@H](CC(C)C)C(=O)N[C@@H](CC(C)C)C(=O)NCC(=O)NCC(=O)N[C@@H](CC(C)C)C(=O)NC(C)(C)C(=O)NCC(=O)N[C@H](C(=O)N[C@@H](CC(C)C)C(N)=O)[C@@H](C)CC [Leu4-NH2, Oct-Aib^1-Gly-Leu-Leu^4-Gly-Gly-Leu-Aib^8-Gly-Ile-Leu^11-NH2] (HELM PEPTIDE1{[CCCCCCCC(=O)[*:2]].[Aib].G.L.L.G.G.L.[Aib].G.I.L.[am]}$$$$V2.0)	> 20	did not significantly affect the viability	stability of the peptides in the presence of cells	> 20 µM	–	–	–
Oct-Aib^1-Gly-Leu-Aib^4-Gly-Gly-Leu-Api^8-Gly-Ile-Leu^11-NH-(CH2)2-NH-FITC [Api8-FITC]	–	–	–	–	–	–	~3 folds
Oct-Aib^1-Gly-Leu-Leu^4-Gly-Gly-Leu-Aib^8-Gly-Ile-Leu^11-NH-(CH2)2-NH-FITC [Leu4-FITC]	–	–	–	–	–	–	about 5 folds
